This is an account of results in patent US11014896B2, “TRPA1 and TRPV4 inhibitors and methods of using the same for organ-specific inflammation and itch” (Duke University, priority 2014, dated 2021).

Entries after “also recorded” stand apart in the source; their conditions may differ.

In experiment [1] the test system is primary mouse keratinocytes (1° MK). Nature of the experiment: UVB-evoked Ca++ signaling in primary mouse keratinocytes (fluo-4 imaging). In kind it is cell-based. Conditions: GSK205 20 μM. Here is the method: Ca++ imaging of 1° MK was conducted following routine procedures. For UVB stimulation, a customized device was built. The system comprised a printed circuit board for electrical interconnects and mechanical support and an ultraviolet light-emitting diode (UV LED).
The operating wavelength was 295 nm (FIG. 2A), with a full-width half-max of 12 nm. The optical power was 500 mW. The focal point was aimed at the plane of the upper surface of the quartz coverslip, which was used to minimize UV absorption along the optical path towards the cells (FIG. 2A-FIG. 2C). The optical intensity at the focal point was estimated to be 150 mW/mm^2.
(§1) Ca++ imaging of mouse 1° MK in response to chemical activation of TRPV4 was conducted after loading with 2 μM fura2-AM, following a ratiometric Ca2+ imaging protocol with 340/380 nm […] for dual excitation. Ratios of emissions were acquired at 0.5 Hz. ΔR/R0 was determined as the fraction of the increase of a given ratio over baseline ratio, divided by baseline ratio. For stimulation of cells with UVB, where fura-2 was not suitable because of the proximity of stimulation with 340/380 nm and 295 nm, 2 μM fluo4-AM was used instead. Ca++ imaging was carried out at 488 nm excitation, acquisition of emissions at 0.5 Hz, expressed as ΔF/F0. In the custom-built UV optical system, UV LEDs were capped with a ball lens, a transparent optical window in the shape of a hemispherical lens (FIG. 2B). The LED output optical beam focused at 15-20 mm from the lens, with a spot diameter of approximately 1.5-2.0 mm (FIG. 2C). […] The thermal equilibration stage was set for physiological temperature.

Experiment [2] concerns the target T1, TRPV4 (Mus musculus, UniProt Q9EPK8).
T1 construct: endogenous in cells; host or cells: primary mouse epidermal keratinocytes (1° MK), wild type
The experiment can be described thus: GSK101-evoked Ca++ transient in 1° MK. The experiment is classed as cell-based. Conditions: 5 nM GSK101; GSK205 20 μM. Here is the method: as §1, with “temperature. We confirmed the non-thermal nature of UVB stimulation using the customized 295 nm LED device in a dedicated experiment (FIG. 2D), thus confirming the specific modality of stimulation as UVB.” for “temperature.”

Experiment [3] has as its target T1, TRPV4. Nature of the experiment: 4α-PDD-evoked Ca++ signaling in 1° MK (fura-2). In kind it is cell-based. Conditions: fura-2 ratiometric imaging. Here is the method: as §1, with “temperature. We confirmed the non-thermal nature of UVB stimulation using the customized 295 nm LED device in a dedicated experiment (FIG. 2D), thus confirming the specific modality of stimulation as UVB.” for “temperature.”

The nature of experiment [4]: Nocifensive behavior in response to ET1 footpad injection (von Frey). The experiment is classed as in vivo, mouse. Conditions: footpad injection of ET1; WT and oil-treated iKO (control) mice. Here is the method: ET1 injections: After determining base-line withdrawal thresholds, each animal received an intraplantar injection of 10 μL 100 nM ET-1 plus contralateral vehicle. Thresholds were again evaluated 1 hour after injection.
Hindpaw mechanical withdrawal thresholds were determined by the automated von Frey hair method, using a 0.5 mm diameter stainless steel filament, part of an automated plantar touch stimulator (Ugo Basile, Modena, Italy). Relevant detail included pre-test acclimatization in a quiet room for 30 min, conducting the test at the same time of day and blinded observers. The stimulus was delivered to the hindpaw, automatically discontinued upon withdrawal, and its intensity recorded automatically. 6-8 trials per animal were conducted, with equal exposure of both hindpaws, leading to an average withdrawal threshold. Results are reported as […], which was calculated by subtracting post-treatment from pre-treatment measurements, expressed as % or relative to 1.0.

T1 sequence (Q9EPK8 whole entry): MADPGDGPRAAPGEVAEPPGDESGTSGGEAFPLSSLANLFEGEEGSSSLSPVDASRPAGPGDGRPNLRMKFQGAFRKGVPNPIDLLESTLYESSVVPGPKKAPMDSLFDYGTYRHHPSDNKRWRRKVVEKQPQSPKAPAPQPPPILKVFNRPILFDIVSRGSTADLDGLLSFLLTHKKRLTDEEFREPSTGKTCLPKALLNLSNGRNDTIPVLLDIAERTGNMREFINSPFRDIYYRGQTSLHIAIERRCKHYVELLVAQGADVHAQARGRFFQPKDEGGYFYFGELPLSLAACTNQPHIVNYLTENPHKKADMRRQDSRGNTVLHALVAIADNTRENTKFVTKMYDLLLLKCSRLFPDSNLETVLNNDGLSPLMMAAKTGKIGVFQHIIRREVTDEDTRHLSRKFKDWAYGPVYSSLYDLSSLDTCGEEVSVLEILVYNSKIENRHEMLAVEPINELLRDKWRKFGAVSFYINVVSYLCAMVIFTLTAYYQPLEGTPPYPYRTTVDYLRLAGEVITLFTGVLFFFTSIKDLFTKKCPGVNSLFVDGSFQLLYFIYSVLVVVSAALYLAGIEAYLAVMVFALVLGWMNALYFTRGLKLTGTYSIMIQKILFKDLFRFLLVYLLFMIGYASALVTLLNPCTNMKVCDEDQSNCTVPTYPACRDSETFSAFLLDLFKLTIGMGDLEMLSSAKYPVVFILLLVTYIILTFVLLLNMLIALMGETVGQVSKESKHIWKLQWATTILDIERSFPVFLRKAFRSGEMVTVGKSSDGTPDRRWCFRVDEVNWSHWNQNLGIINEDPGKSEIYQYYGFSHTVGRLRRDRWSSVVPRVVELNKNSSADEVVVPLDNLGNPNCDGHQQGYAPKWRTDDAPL

On to “ET1: endothelin-1, cognate peptide ligand of endothelin receptors”, for which, in experiment [1], the “UVB-evoked Ca++ signaling (ΔF/F0)” value is “significant increase; also recorded: augmentation”. In addition, the “GSK101-evoked Ca++ transient” value in experiment [2] is on record as “augmented; also recorded: increase in signal”. For the same substance, the “4α-PDD-evoked Ca++ transients on co-application” value in experiment [3] is “significant increase in the response”. Also, the “mechanical allodynia / von Frey withdrawal thresholds after ET1 injection” value in experiment [4] was “significantly lowered; also recorded: significant levels of mechanical allodynia”.
